The source of these data is patent US9902733B2, “Furopyridines as inhibitors of protein kinases” (MASARYKOVA UNIVERZITA, priority 2014, dated 2018).

Structures are written as SMILES.

In test [1] the target is T1, CLK4 (h) (Homo sapiens, UniProt Q9HAZ1).
T1 construct: purchased Merck Millipore (KinaseProfiler service)
Nature of the test: CLK4 KinaseProfiler radiometric protein kinase assay. It is filed as biochemical. The conditions noted are these: 15 μM ATP, 40 minutes at room temperature. The protocol:
(§1) In vitro essays were performed by the company Merck Millipore in their KinaseProfiler radiometric protein kinase assay as paid commercial service. The compounds IC50 values for inhibition of individual protein kinases were determined. Dose-response curves were plotted from inhibition data generated, each in duplicate, from 10 point serial dilutions of inhibitory compounds. Concentration of compound was plotted against % kinase activity. To generate IC50 values, the dose-response curves were fitted to a standard sigmoidal curve and IC50 values were derived by standard nonlinear regression analysis.
(§2) All tested compounds were prepared in 100% DMSO to final assay concentrations either 0.5 mM (for the concentration row A, see below) or 0.05 mM (for the concentration row B). This working stock of the compound was added to the assay well as the first component in the reaction, followed by the remaining components as detailed below. The stock solution was added to the individual assay wells in such amounts that the concentrations of the compound were either in the row A (0.001 μM, 0.003 μM, 0.01 μM, 0.03 μM, 0.1 μM, 0.3 μM, 1.0 μM, 3.0 μM, and 10.0 μM) or in the row B (0.0001 μM, 0.0003 μM, 0.001 μM, 0.003 μM, 0.01 μM, 0.03 μM, 0.1 μM, 0.3 μM, and 1.0 μM). There was no pre-incubation step between the compound and the kinase prior to initiation of the reaction.
(§3) The positive control wells contained all components of the reaction, except the compound of interest; however, DMSO (at a final concentration of 2%) was included in these wells to control for solvent effects. The blank wells contained all components of the reaction, with staurosporine as a reference inhibitor replacing the compound of interest. This abolished kinase activity and established the base-line (0% kinase activity remaining).
CLK4 (h) was diluted in the buffer (20 mM MOPS, 1 mM EDTA, 0.01% Brij-35, 5% Glycerol, 0.1% β-mercaptoethanol, 1 mg/mL BSAs) to the concentration of 1.01 mg/mL prior to addition to the reaction mix.
The above stock solution of CLK4(h) was added to a mixture containing 8 mM MOPS pH 7.0, 0.2 mM EDTA, and 200 μM […](p) EDEEE in such amount that the resulting concentration of CLK4(h) was 140.8 nM. This mixture was added to the stock solution of the tested compound. The reaction was initiated by the addition of the MgATP mix in such amount that the resulting concentration of Mg acetate in the reaction mixture was 10 mM and [γ-^33P-ATP] (specific activity approx. 500 cpm/pmol) was 15 μM. After incubation for 40 minutes at room temperature, the reaction was stopped by the addition of 3% phosphoric acid solution. 10 μL of the reaction was then spotted onto a P30 filtermat and washed three times for 5 minutes in 75 mM phosphoric acid and once in methanol prior to drying and scintillation counting.

Test [2] concerns the target T2, HIPK3(h) (Homo sapiens, UniProt Q9H422).
T2 construct: purchased Merck Millipore (KinaseProfiler service)
The test can be described thus: HIPK3 KinaseProfiler radiometric protein kinase assay. Format: biochemical. The following applies: 15 μM ATP, 40 minutes at room temperature. The protocol:
as §1, §2, §3
HIPK3(h) was diluted in the buffer (20 mM MOPS, 1 mM EDTA, 0.01% Brij-35, 5% Glycerol, 0.1% β-mercaptoethanol, 1 mg/mL BSAs) to the concentration of 1.01 mg/mL prior to addition to the reaction mix.
The above stock solution of HIPK3(h) was added to a mixture containing 8 mM MOPS pH 7.0, 0.2 mM EDTA, and 1.0 mg/mL myelin basic protein in such amount that the resulting concentration of HIPK3(h) was 6.4 nM. This mixture was added to the stock solution of the tested compound. The reaction was initiated by the addition of the MgATP mix in such amount that the resulting concentration of Mg acetate in the reaction mixture was 10 mM and [γ-^33P-ATP] (specific activity approx. 500 cpm/pmol) was 15 μM. After incubation for 40 minutes at room temperature, the reaction was stopped by the addition of 3% phosphoric acid solution. […]

Broadly, the IC50 is the concentration needed to halve the response being measured. The low end stands for inhibition by little substance, the high end for a need for much substance.

T1 sequence (Q9HAZ1 whole entry): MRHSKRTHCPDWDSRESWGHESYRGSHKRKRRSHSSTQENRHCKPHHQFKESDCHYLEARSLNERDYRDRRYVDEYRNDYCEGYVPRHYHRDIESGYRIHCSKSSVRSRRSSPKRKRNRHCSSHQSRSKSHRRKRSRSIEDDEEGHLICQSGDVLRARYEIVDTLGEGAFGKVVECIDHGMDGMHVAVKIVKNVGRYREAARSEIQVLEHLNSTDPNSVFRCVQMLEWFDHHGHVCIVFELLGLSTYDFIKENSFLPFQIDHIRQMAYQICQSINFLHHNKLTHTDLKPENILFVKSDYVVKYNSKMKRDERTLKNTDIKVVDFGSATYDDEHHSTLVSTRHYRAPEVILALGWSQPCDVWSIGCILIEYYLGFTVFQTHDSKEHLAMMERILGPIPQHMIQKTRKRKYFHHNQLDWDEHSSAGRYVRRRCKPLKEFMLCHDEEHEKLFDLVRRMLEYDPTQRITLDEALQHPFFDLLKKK
T2 sequence (Q9H422 whole entry): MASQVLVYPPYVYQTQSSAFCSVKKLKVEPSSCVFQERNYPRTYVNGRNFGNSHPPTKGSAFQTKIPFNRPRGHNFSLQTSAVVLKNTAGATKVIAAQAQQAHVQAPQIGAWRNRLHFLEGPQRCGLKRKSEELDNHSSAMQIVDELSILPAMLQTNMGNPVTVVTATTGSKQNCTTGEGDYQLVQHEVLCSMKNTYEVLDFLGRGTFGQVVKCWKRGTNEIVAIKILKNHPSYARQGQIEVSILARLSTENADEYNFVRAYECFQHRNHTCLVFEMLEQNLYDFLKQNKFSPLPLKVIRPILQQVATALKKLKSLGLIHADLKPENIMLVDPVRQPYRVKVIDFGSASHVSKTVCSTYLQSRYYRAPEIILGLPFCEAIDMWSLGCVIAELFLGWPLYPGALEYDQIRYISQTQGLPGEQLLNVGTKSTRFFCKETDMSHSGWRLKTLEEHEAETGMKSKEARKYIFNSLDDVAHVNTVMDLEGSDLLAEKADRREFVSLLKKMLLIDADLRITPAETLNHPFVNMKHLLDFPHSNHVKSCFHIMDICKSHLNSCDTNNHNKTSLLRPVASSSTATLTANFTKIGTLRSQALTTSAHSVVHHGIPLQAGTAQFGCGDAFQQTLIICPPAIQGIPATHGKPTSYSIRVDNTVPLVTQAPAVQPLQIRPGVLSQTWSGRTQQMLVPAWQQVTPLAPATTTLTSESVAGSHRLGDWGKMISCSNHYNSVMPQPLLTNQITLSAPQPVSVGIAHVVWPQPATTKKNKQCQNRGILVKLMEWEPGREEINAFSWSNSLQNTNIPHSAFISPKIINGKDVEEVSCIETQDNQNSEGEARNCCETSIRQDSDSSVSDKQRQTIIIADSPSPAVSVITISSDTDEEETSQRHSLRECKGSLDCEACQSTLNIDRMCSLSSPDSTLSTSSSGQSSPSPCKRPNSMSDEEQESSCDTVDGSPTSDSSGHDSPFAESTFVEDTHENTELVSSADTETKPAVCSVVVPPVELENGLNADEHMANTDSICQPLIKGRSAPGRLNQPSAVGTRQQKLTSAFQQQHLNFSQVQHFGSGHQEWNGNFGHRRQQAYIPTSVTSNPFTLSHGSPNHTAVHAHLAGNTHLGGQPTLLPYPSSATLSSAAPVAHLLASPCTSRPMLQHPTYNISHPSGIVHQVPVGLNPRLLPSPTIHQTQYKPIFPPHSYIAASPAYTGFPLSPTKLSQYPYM

Take `Cn1cc(-c2ccc3occ(-c4ccccc4)c3n2)cn1` [Preparative Example 6A]: the IC50 in test [1] is under 100 nM; in test [2], under 5000 nM.

For the compound `c1ccc(-c2coc3ccc(-c4cn[nH]c4)nc23)cc1` [Preparative Example 9], the IC50 in test [1] is under 100 nM; in test [2] it was under 1000 nM.
